Results as given in ChEMBL document CHEMBL1828546, “Aminothiophenedicarboxamides and dicyanothiopheneacetamides as effective synthetic molluscicides against Indoplanorbis exustus snail” (Eur J Med Chem, 2011).
Active and inactive are the calls of the source. The calls are words filed in the database; no cut-off is given here.

Assays:
Assay type in all cases: functional
Indoplanorbis exustus [1] = experiment: Molluscicidal activity against Indoplanorbis exustus assessed as mortality at 0.02 to 40 ppm after 24 hrs
Indoplanorbis exustus [2] = experiment: Molluscicidal activity against Indoplanorbis exustus assessed as mortality at 10 ppm after 24 hrs
Indoplanorbis exustus [3] = experiment: Molluscicidal activity against Indoplanorbis exustus assessed as mortality at 20 ppm after 24 hrs
Indoplanorbis exustus [4] = experiment: Molluscicidal activity against Indoplanorbis exustus assessed as mortality at 30 ppm after 24 hrs
Indoplanorbis exustus [5] = experiment: Molluscicidal activity against Indoplanorbis exustus assessed as mortality at 40 ppm after 24 hrs
Indoplanorbis exustus [6] = experiment: Molluscicidal activity against Indoplanorbis exustus after 24 hrs
Indoplanorbis exustus [7] = experiment: Molluscicidal activity against Indoplanorbis exustus assessed as mortality at 0.02 ppm after 24 hrs
Indoplanorbis exustus [8] = experiment: Molluscicidal activity against Indoplanorbis exustus assessed as mortality at 0.04 ppm after 24 hrs
Indoplanorbis exustus [9] = experiment: Molluscicidal activity against Indoplanorbis exustus assessed as mortality at 0.06 ppm after 24 hrs
Indoplanorbis exustus [10] = experiment: Molluscicidal activity against Indoplanorbis exustus assessed as mortality at 0.08 ppm after 24 hrs

`Cc1nc2sc(C(N)=O)c(-c3ccc(Cl)cc3)c2c(=O)[nH]1` was tested, and the Activity (Indoplanorbis exustus [1]) was “inactive”.

In the case of `N#Cc1sc(N)c(C#N)c1-c1ccc(F)cc1F`, the Activity (Indoplanorbis exustus [1]) was “inactive”.

Compound `NC(=O)c1sc(N)c(C(N)=O)c1-c1cc(C(F)(F)F)cc(C(F)(F)F)c1` has an Activity (Indoplanorbis exustus [2]) of 20%, an Activity (Indoplanorbis exustus [3]) of 30% and an Activity (Indoplanorbis exustus [4]) of 60%. It also gave an Activity (Indoplanorbis exustus [5]) of 60% and an LC50 (Indoplanorbis exustus [6]) of 0.751 ppm.

`CC(=O)Nc1sc(C#N)c(-c2cc(C(F)(F)F)cc(C(F)(F)F)c2)c1C#N` was tested, and the Activity (Indoplanorbis exustus [7]) was 20%, the Activity (Indoplanorbis exustus [8]) was 30% and the Activity (Indoplanorbis exustus [9]) was 50%. It also gave an Activity (Indoplanorbis exustus [10]) of 70% and an LC50 (Indoplanorbis exustus [6]) of 0.74 ppm.

With `CC(=O)Nc1sc(C#N)c(-c2ccc(Cl)cc2)c1C#N` the Activity (Indoplanorbis exustus [7]) was 20%, the Activity (Indoplanorbis exustus [8]) was 40% and the Activity (Indoplanorbis exustus [9]) was 60%. For the same compound, the Activity (Indoplanorbis exustus [10]) was 80% and the LC50 (Indoplanorbis exustus [6]) was 0.651 ppm.

For `NC(=O)c1sc(N)c(C(N)=O)c1-c1ccc(F)cc1F`, the Activity (Indoplanorbis exustus [2]) was 20%, the Activity (Indoplanorbis exustus [3]) was 40% and the Activity (Indoplanorbis exustus [4]) was 60%. The Activity (Indoplanorbis exustus [5]) was 70% and the LC50 (Indoplanorbis exustus [6]) was 0.607 ppm.

`NC(=O)c1sc(N)c(C(N)=O)c1-c1ccc(Cl)cc1` gave an Activity (Indoplanorbis exustus [2]) of 0%, an Activity (Indoplanorbis exustus [3]) of 20% and an Activity (Indoplanorbis exustus [4]) of 30%. The Activity (Indoplanorbis exustus [5]) was 50% and the LC50 (Indoplanorbis exustus [6]) was 0.604 ppm.

With `N#Cc1sc(N)c(C#N)c1-c1cc(C(F)(F)F)cc(C(F)(F)F)c1` the Activity (Indoplanorbis exustus [1]) was “inactive”.

With `N#Cc1sc(N)c(C#N)c1-c1ccc(Cl)cc1` the Activity (Indoplanorbis exustus [1]) was “inactive”.

In the case of `NC(=O)c1sc2nc(CCl)[nH]c(=O)c2c1-c1ccc(Cl)cc1`, the Activity (Indoplanorbis exustus [1]) was “inactive”.

Compound `CC(=O)Nc1sc(C#N)c(-c2ccc(F)cc2F)c1C#N` has an Activity (Indoplanorbis exustus [7]) of 20%, an Activity (Indoplanorbis exustus [8]) of 40% and an Activity (Indoplanorbis exustus [9]) of 50%. For the same compound, the Activity (Indoplanorbis exustus [10]) was 60% and the LC50 (Indoplanorbis exustus [6]) was 0.763 ppm.
